How the values were obtained:
Kallikrein-7 [1] = target: Kallikrein-7 (Mus musculus, UniProt Q91VE3); assay: Inhibition of mouse KLK7 using MOCAcArg-Pro-Lys-Pro-Val-Glu-Nva-Trp-Arg-Lys(Dnp)-NH2 as substrate preincubated for 10 mins followed by substrate addition measured after 30 mins by fluorescence assay
[2] = target: Kallikrein-7 (Mus musculus) (UniProt Q91VE3); assay: Inhibition of mouse KLK7 at 30 uM using MOCAcArg-Pro-Lys-Pro-Val-Glu-Nva-Trp-Arg-Lys(Dnp)-NH2 as substrate preincubated for 10 mins followed by substrate addition measured after 30 mins by fluorescence assay relative to control
Chain of Kallikrein-7 (Mus musculus) (Q91VE3 whole entry, the tested form may be a part): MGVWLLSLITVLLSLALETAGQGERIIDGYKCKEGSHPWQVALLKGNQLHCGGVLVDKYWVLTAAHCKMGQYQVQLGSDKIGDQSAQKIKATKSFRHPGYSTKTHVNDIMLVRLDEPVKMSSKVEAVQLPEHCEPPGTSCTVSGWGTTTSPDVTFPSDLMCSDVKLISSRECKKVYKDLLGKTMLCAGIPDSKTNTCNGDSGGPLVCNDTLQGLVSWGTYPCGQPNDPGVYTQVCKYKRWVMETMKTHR

Kallikrein-7 [3] = target: Kallikrein-7 (Homo sapiens, UniProt P49862); assay: Inhibition of recombinant human C-terminal His10-tagged KLK7 (E23 to H252 residues) using MOCAcArg-Pro-Lys-Pro-Val-Glu-Nva-Trp-Arg-Lys(Dnp)-NH2 as substrate preincubated for 10 mins followed by substrate addition measured after 30 mins by fluorescence assay
Chain of Kallikrein-7 (Homo sapiens, UniProt P49862) (P49862 whole entry, the tested form may be a part): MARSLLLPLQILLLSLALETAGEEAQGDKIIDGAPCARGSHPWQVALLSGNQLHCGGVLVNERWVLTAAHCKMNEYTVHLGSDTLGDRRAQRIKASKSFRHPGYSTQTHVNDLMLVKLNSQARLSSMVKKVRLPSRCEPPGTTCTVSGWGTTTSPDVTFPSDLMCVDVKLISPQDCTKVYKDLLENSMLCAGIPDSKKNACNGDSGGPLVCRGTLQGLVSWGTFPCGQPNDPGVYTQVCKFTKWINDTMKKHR

Chain of Kallikrein-7 (Mus musculus, UniProt Q91VE3) (Q91VE3 whole entry): as the sequence (Q91VE3 whole entry, the tested form may be a part) above

IC50 (Kallikrein-7 [1])	inhibition [2]	IC50 (Kallikrein-7 [3])	Structure (SMILES)
> 30 µM	-1.2%		COc1ccc(Cl)cc1C[C@@H]1CN/C(=N\N(C)C)CN(CC(=O)Nc2cccc(-c3cnn(C)c3)c2)C1=O
3.8 µM		5.2 µM	Cc1cccc(C)c1CC1CN/C(=N\N(C)C)CN(CC(=O)Nc2cccc(-c3cnn(C)c3)c2)C1=O (racemic)
0.7 µM		0.38 µM	CN(C)/N=C1/CN(CC(=O)Nc2cccc(-c3cnn(C)c3)c2)C(=O)C(Cc2c(Cl)cccc2Cl)CN1 (single isomer, unassigned; (-))
16 µM		> 30 µM	CN(C)/N=C1/CN(CC(=O)Nc2cccc(-c3cnn(C)c3)c2)C(=O)C(Cc2c(Cl)cccc2Cl)CN1 (stereo in doubt; (+)-22g)
> 30 µM		6.9 µM	CN(C)/N=C1/CN(CC(=O)Nc2cccc(-c3cnn(C)c3)c2)C(=O)C(Cc2c(F)cccc2F)CN1 (racemic)
21 µM	59%	2.5 µM	CN(C)/N=C1/CN(CC(=O)Nc2cccc(-c3cnn(C)c3)c2)C(=O)C(Cc2ccccc2Cl)CN1 (racemic)
> 30 µM	32%		COc1ccc(Cl)cc1C[C@@H]1CN/C(=N\N(C)C)CN([C@@H](C)C(=O)Nc2cccc(-c3cnn(C)c3)c2)C1=O
> 30 µM	-4.1%	7.5 µM	COc1cc(Cl)ccc1CC1CN/C(=N\N(C)C)CN(CC(=O)Nc2cccc(-c3cnn(C)c3)c2)C1=O (racemic)
14 µM	67%	11 µM	COc1cccc(Cl)c1CC1CN/C(=N\N(C)C)CN(CC(=O)Nc2cccc(-c3cnn(C)c3)c2)C1=O (racemic)
> 30 µM	41%	2.4 µM	COc1ccccc1C[C@@H]1CN/C(=N\N(C)C)CN(CC(=O)Nc2cccc(-c3cnn(C)c3)c2)C1=O
7.1 µM		11 µM	Cc1cccc(C#N)c1CC1CN/C(=N\N(C)C)CN(CC(=O)Nc2cccc(-c3cnn(C)c3)c2)C1=O (racemic)
1.6 µM		1.5 µM	Cc1cccc(Cl)c1CC1CN/C(=N\N(C)C)CN(CC(=O)Nc2cccc(-c3cnn(C)c3)c2)C1=O (racemic)
1.2 µM		0.79 µM	CN(C)/N=C1/CN(CC(=O)Nc2cccc(-c3cnn(C)c3)c2)C(=O)C(Cc2c(Cl)cccc2Cl)CN1 (racemic)
> 30 µM		6.8 µM	COc1cccc(F)c1CC1CN/C(=N\N(C)C)CN(CC(=O)Nc2cccc(-c3cnn(C)c3)c2)C1=O (racemic)
> 30 µM		2.7 µM	CN(C)/N=C1/CN(CC(=O)Nc2cccc(-c3cnn(C)c3)c2)C(=O)C(Cc2c(F)cccc2C(F)(F)F)CN1 (racemic)
7.8 µM		11 µM	CN(C)/N=C1/CN(CC(=O)Nc2cccc(-c3cnn(C)c3)c2)C(=O)C(Cc2c(Cl)cccc2C#N)CN1 (racemic)
> 30 µM	11%		COc1ccc(Cl)cc1C[C@@H]1CN/C(=N\N(C)C)CN(CC(=O)Nc2cccc(C(=O)O)c2)C1=O
> 30 µM	22%	17 µM	CN(C)/N=C1/CN(CC(=O)Nc2cccc(-c3cnn(C)c3)c2)C(=O)C(Cc2ccccc2C#N)CN1 (racemic)
7.7 µM		2.3 µM	Cc1cccc(F)c1CC1CN/C(=N\N(C)C)CN(CC(=O)Nc2cccc(-c3cnn(C)c3)c2)C1=O (racemic)
6 µM		0.94 µM	CN(C)/N=C1/CN(CC(=O)Nc2cccc(-c3cnn(C)c3)c2)C(=O)C(Cc2c(F)cccc2Cl)CN1 (racemic)
19 µM		13 µM	COc1cccc(C)c1CC1CN/C(=N\N(C)C)CN(CC(=O)Nc2cccc(-c3cnn(C)c3)c2)C1=O (racemic)

From ChEMBL document CHEMBL4118260, “Structure-based drug design to overcome species differences in kallikrein 7 inhibition of 1,3,6-trisubstituted 1,4-diazepan-7-ones” (Bioorg Med Chem, 2018)
